The results in this text go back to patent US20250282735A1, “BICYCLE COMPOUNDS AS TEAD INHIBITOR” (DONG-A ST CO., LTD., priority 2022, published 2025).

In this assay the test system is TEAD reporter-containing human breast cancer cell line MCF7. The experiment in a line: TEAD reporter (luciferase) assay. Type of assay: cell-based. Conditions: TEAD reporter MCF7 cells, 24 hours treatment, 1% serum media. As to the method:
The TEAD reporter-containing human breast cancer cell line MCF7 (60618, BPS bioscience) was cultured according to the manufacturer's instructions. Cells were plated in 96-well white plates at a density of 30,000 per well and incubated overnight. The following day cells were treated with small molecules in 1% serum media (0.1% v/v DMSO). After 24 hours of the treatment, cell viability was evaluated by using CCK-8 reagent (CK04, Dojindo) and measuring absorbance at 450 nm. Then, the assay for luciferase activity was performed using Dual-Glo® Luciferase Assay System (Promega, E2940) following the manufacturer's instructions. Luminescence intensity was measured and the potency of the compounds was determined by IC50 value generated from non-linear regression analysis of the dose-response curves.
IC50 for luciferase activity are shown in the Table 1 below and designated within the following ranges. [+++: ≤0.1 μM, ++: >0.1 μM to ≤1 μM, +: >1 μM to ≤10 μM, −: >10 μM]

Each structure is given as a SMILES string.

With `C=CC(=O)Nc1cnc2c(c1)c(/C=C/c1cccc(OC)c1)cn2C` [Compound 48, (E)-N-(3-(3-Methoxystyryl)-1-methyl-1H-pyrrolo[2,3-b]pyridin-5-yl)acrylamide], the half-maximal inhibitory concentration (IC50) (as a rule, the midpoint of a concentration-inhibition curve) is 1 to 10 µM.
Regarding `C=CC(=O)Nc1cnc2c(c1)c(-c1cccc(CCC3CCC(F)(F)CC3)c1)cn2C` [Example 86, N-(3-(3-(2-(4,4-Difluorocyclohexyl)ethyl)phenyl)-1-methyl-1H-pyrrolo[2,3-b]pyridin-5-yl)acrylamide], the IC50 was 0.1 to 1 µM.
The value for `C=CC(=O)Nc1cnc2c(c1)c(/C=C/C1CC1C(=O)OCC)cn2C` (stereo not shown) [Example 62, Ethyl (E)-2-(2-(5-acrylamido-1-methyl-1H-pyrrolo[2,3-b]pyridin-3-yl)vinyl)cyclopropane-1-carboxylate] was above 10 µM.
Regarding `C=CC(=O)Nc1cc(F)c2c(c1)c(/C=C/c1ccc(Cl)cc1)cn2C(C)C` [Compound 39, (E)-N-(3-(4-Chlorostyryl)-7-fluoro-1-isopropyl-1H-indol-5-yl)acrylamide], the half-maximal inhibitory concentration (IC50) was above 10 µM.
As for `C=CC(=O)Nc1cc(F)c2c(c1)c(/C=C/C1CCC(F)(F)CC1)cn2C(C)C` [Compound 38, (E)-N-(3-(2-(4,4-Difluorocyclohexyl)vinyl)-7-fluoro-1-isopropyl-1H-indol-5-yl)acrylamide], the figure is 1 to 10 µM.
The value for `C=CC(=O)Nc1cnc2c(c1)c(/C=C/C1CCOCC1)cn2C` [Example 58, (E)-N-(1-Methyl-3-(2-(tetrahydro-2H-pyran-4-yl)vinyl)-1H-pyrrolo[2,3-b]pyridin-5-yl)acrylamide] was 0.1 to 1 µM; that for `C=CC(=O)Nc1cnc2c(c1)c(-c1ccc(C3CCCCC3)cc1)cn2C` [Example 108, N-(3-(4-Cyclohexylphenyl)-1-methyl-1H-pyrrolo[2,3-b]pyridin-5-yl)acrylamide] was 0.1 to 1 µM; that for `C=CC(=O)Nc1ccc2c(c1)c(C1CCC(OC)CC1)cn2C` (stereo not shown) [Example 126, N-(3-(4-Methoxycyclohexyl)-1-methyl-1H-indol-5-yl)acrylamide] was above 10 µM.
As for `C=CC(=O)Nc1cnc2c(c1)c(-c1ccc(OC)cc1)cn2C` [Example 90, N-(3-(4-Methoxyphenyl)-1-methyl-1H-pyrrolo[2,3-b]pyridin-5-yl)acrylamide], the figure is 1 to 10 µM.
`C=CC(=O)Nc1cnc2c(c1)c(/C=C/C1CC1)cn2C` [Example 60, (E)-N-(3-(2-Cyclopropylvinyl)-1-methyl-1H-pyrrolo[2,3-b]pyridin-5-yl)acrylamide]: the IC50 lay within 1 to 10 µM.
The value for `C=CC(=O)Nc1cnc2c(c1)c(-c1cccc(C(F)(F)F)c1)cn2C(F)F` [Example 134, N-(1-(Difluoromethyl)-3-(3-(trifluoromethyl)phenyl)-1H-pyrrolo[2,3-b]pyridin-5-yl)acrylamide] was 0.1 to 1 µM; that for `C=CC(=O)Nc1ccc2c(c1)c(C1CCCCC1)cn2C` [Example 123, N-(3-Cyclohexyl-1-methyl-1H-indol-5-yl)acrylamide] was at most 0.1 µM; that for `C=CC(=O)N(Cc1nn[nH]n1)c1cnc2c(c1)c(/C=C/c1ccc(Cl)cc1)cn2C` [Example 69, (E)-N-((2H-Tetrazol-5-yl)methyl)-N-(3-(4-chlorostyryl)-1-methyl-1H-pyrrolo[2,3-b]pyridin-5-yl)acrylamide] was 1 to 10 µM.
The value for `C=CC(=O)Nc1cnc2c(c1)c(-c1ccc(C(C)(C)C)cc1)cn2C` [Example 109, N-(3-(4-(tert-Butyl)phenyl)-1-methyl-1H-pyrrolo[2,3-b]pyridin-5-yl)acrylamide] was 1 to 10 µM; that for `C=CC(=O)Nc1cnc2c(c1)c(-c1ccc(N3CCCCC3)cc1)cn2C` [Example 102, N-(1-Methyl-3-(4-(piperidin-1-yl)phenyl)-1H-pyrrolo[2,3-b]pyridin-5-yl)acrylamide] was 1 to 10 µM.
As for `C=CC(=O)Nc1cnc2c(c1)c(C=C1CCCCC1)cn2C` [Example 137, N-(3-(Cyclohexylidenemethyl)-1-methyl-1H-pyrrolo[2,3-b]pyridin-5-yl)acrylamide], the figure is at most 0.1 µM.
